Measurements published in PubChem BioAssay (NCI).
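Where inhibition never reached the appropriate level, the endpoint shown equals the highest concentration tested. Otherwise, values were interpolated linearly from a five-concentration, 48-hour dose response in 96-well plates. GI50: concentration for 50% inhibition of growth. Definition used: TGI = concentration required for complete inhibition of growth.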

Columns and labels:
Assay in all cases: NCI anticancer screen, dose series, 48 h
HCT-116 colon = tested on: HCT-116 colon
EKVX NSCLC = tested on: EKVX NSCLC
TK-10 renal = tested on: TK-10 renal
MALME-3M melanoma = tested on: MALME-3M melanoma
MDA-MB-231 breast = tested on: MDA-MB-231 breast
A498 renal = tested on: A498 renal
SNB-75 CNS = tested on: SNB-75 CNS
A549 NSCLC = tested on: A549 NSCLC
UACC-257 melanoma = tested on: UACC-257 melanoma
CAKI-1 renal = tested on: CAKI-1 renal
RXF 393 renal = tested on: RXF 393 renal
NCI-H522 lung = tested on: NCI-H522 lung
OVCAR-5 ovarian = tested on: OVCAR-5 ovarian
SF-295 CNS = tested on: SF-295 CNS
DU-145 prostate = tested on: DU-145 prostate
SN12C renal = tested on: SN12C renal
OVCAR-3 ovarian = tested on: OVCAR-3 ovarian
OVCAR-4 ovarian = tested on: OVCAR-4 ovarian
SF-268 CNS = tested on: SF-268 CNS
HCT-15 colon = tested on: HCT-15 colon
UO-31 renal = tested on: UO-31 renal
U251 CNS = tested on: U251 CNS
NCI-H226 lung = tested on: NCI-H226 lung
MDA-MB-435 = tested on: MDA-MB-435
SNB-19 CNS = tested on: SNB-19 CNS
M14 melanoma = tested on: M14 melanoma
HT29 colon = tested on: HT29 colon
T-47D breast = tested on: T-47D breast
IGROV1 ovarian = tested on: IGROV1 ovarian
NCI-H23 lung = tested on: NCI-H23 lung
HS 578T breast = tested on: HS 578T breast
UACC-62 melanoma = tested on: UACC-62 melanoma
NCI/ADR-RES ovarian = tested on: NCI/ADR-RES ovarian
MCF7 breast = tested on: MCF7 breast
HOP-62 NSCLC = tested on: HOP-62 NSCLC
COLO 205 colon = tested on: COLO 205 colon
786-0 renal = tested on: 786-0 renal
SK-MEL-2 melanoma = tested on: SK-MEL-2 melanoma
SK-MEL-28 melanoma = tested on: SK-MEL-28 melanoma
ACHN renal = tested on: ACHN renal
KM12 colon = tested on: KM12 colon
NCI-H460 lung = tested on: NCI-H460 lung
SW-620 colon = tested on: SW-620 colon
SK-OV-3 ovarian = tested on: SK-OV-3 ovarian
SF-539 CNS = tested on: SF-539 CNS
SK-MEL-5 melanoma = tested on: SK-MEL-5 melanoma
OVCAR-8 ovarian = tested on: OVCAR-8 ovarian
RPMI-8226 leukemia = tested on: RPMI-8226 leukemia
HCC-2998 colon = tested on: HCC-2998 colon
PC-3 prostate = tested on: PC-3 prostate
HOP-92 NSCLC = tested on: HOP-92 NSCLC
MOLT-4 leukemia = tested on: MOLT-4 leukemia
LOX IMVI melanoma = tested on: LOX IMVI melanoma
BT-549 breast = tested on: BT-549 breast
CCRF-CEM leukemia = tested on: CCRF-CEM leukemia
K-562 leukemia = tested on: K-562 leukemia

With Oc1cn(-c2ccc(Cl)cc2)nc1-c1nnc(Nc2ccccc2)o1 as the compound, how does the TGI (HCT-116 colon) read?
Its TGI is 29.6 µM.

What about the TGI (EKVX NSCLC) of the same compound?
Its TGI is 72.8 µM.

What about the TGI (TK-10 renal) of the same compound?
The TGI was 38.1 µM.

What about the TGI (MALME-3M melanoma) of the same compound?
Its TGI is 50.1 µM.

And the TGI (MDA-MB-231 breast)?
Its TGI is 27.4 µM.

What about the TGI (A498 renal) of the same compound?
Its TGI is 29.5 µM.

And the TGI (SNB-75 CNS)?
Its TGI is 45.2 µM.

And the TGI (A549 NSCLC)?
Its TGI is 43.3 µM.

What about the TGI (UACC-257 melanoma) of the same compound?
The TGI was 43.5 µM.

What about the TGI (CAKI-1 renal) of the same compound?
The TGI was greater than 100 µM.

What about the TGI (RXF 393 renal) of the same compound?
Its TGI is 39.6 µM.

What about the TGI (NCI-H522 lung) of the same compound?
The TGI was 35.4 µM.

What about the TGI (OVCAR-5 ovarian) of the same compound?
Its TGI is greater than 100 µM.

And the TGI (SF-295 CNS)?
Its TGI is 39.2 µM.

What about the TGI (DU-145 prostate) of the same compound?
The TGI was 42.1 µM.

And the TGI (SN12C renal)?
Its TGI is 32.2 µM.

What about the TGI (OVCAR-3 ovarian) of the same compound?
The TGI was greater than 100 µM.

What about the TGI (OVCAR-4 ovarian) of the same compound?
The TGI was greater than 100 µM.

What about the TGI (SF-268 CNS) of the same compound?
Its TGI is 33.7 µM.

What about the TGI (HCT-15 colon) of the same compound?
Its TGI is 28 µM.

What about the TGI (UO-31 renal) of the same compound?
The TGI was 46.1 µM.

What about the TGI (U251 CNS) of the same compound?
Its TGI is 34.1 µM.

What about the TGI (NCI-H226 lung) of the same compound?
Its TGI is 31.4 µM.

And the TGI (MDA-MB-435)?
Its TGI is 34.3 µM.

And the TGI (SNB-19 CNS)?
The TGI was 50.5 µM.

What about the TGI (M14 melanoma) of the same compound?
Its TGI is 37.5 µM.

What about the TGI (HT29 colon) of the same compound?
The TGI was 22 µM.

And the TGI (T-47D breast)?
The TGI was 50.3 µM.

What about the TGI (IGROV1 ovarian) of the same compound?
Its TGI is 32.4 µM.

And the TGI (NCI-H23 lung)?
Its TGI is 27.3 µM.

And the TGI (HS 578T breast)?
The TGI was 51.2 µM.

And the TGI (UACC-62 melanoma)?
The TGI was 30.6 µM.

What about the TGI (NCI/ADR-RES ovarian) of the same compound?
The TGI was 30.1 µM.

And the TGI (MCF7 breast)?
Its TGI is 33.9 µM.

And the TGI (HOP-62 NSCLC)?
The TGI was 31.6 µM.

What about the TGI (COLO 205 colon) of the same compound?
Its TGI is 51 µM.

What about the TGI (786-0 renal) of the same compound?
Its TGI is 36.1 µM.

And the TGI (SK-MEL-2 melanoma)?
Its TGI is 38.3 µM.

And the TGI (SK-MEL-28 melanoma)?
Its TGI is 34.9 µM.

And the TGI (ACHN renal)?
Its TGI is 71.6 µM.

And the TGI (KM12 colon)?
Its TGI is 37.2 µM.

What about the TGI (NCI-H460 lung) of the same compound?
The TGI was 39.6 µM.

What about the TGI (SW-620 colon) of the same compound?
Its TGI is 41 µM.

What about the TGI (SK-OV-3 ovarian) of the same compound?
Its TGI is 49.4 µM.

What about the TGI (SF-539 CNS) of the same compound?
The TGI was 30.8 µM.

What about the TGI (SK-MEL-5 melanoma) of the same compound?
Its TGI is 23.6 µM.

And the TGI (OVCAR-8 ovarian)?
Its TGI is 43.6 µM.

Which results are given for O=C1N=C2c3c(sc4c3CCCC4)N=CN2C1N=Nc1ccc(Cl)cc1 (configuration not stated)?
GI50 (RPMI-8226 leukemia): 3.2 µM; TGI (RPMI-8226 leukemia): 27.6 µM; GI50 (HCT-116 colon): 17.8 µM; TGI (HCT-116 colon): > 100 µM; GI50 (EKVX NSCLC): 7.79 µM; TGI (EKVX NSCLC): 39.1 µM; GI50 (TK-10 renal): 37.5 µM; TGI (TK-10 renal): > 100 µM; GI50 (MALME-3M melanoma): 23.9 µM; TGI (MALME-3M melanoma): 87.2 µM; GI50 (MDA-MB-231 breast): 20.1 µM; TGI (MDA-MB-231 breast): > 100 µM; GI50 (A498 renal): 21.3 µM; TGI (A498 renal): 47.4 µM; GI50 (HCC-2998 colon): 24.4 µM; TGI (HCC-2998 colon): 91.2 µM; GI50 (PC-3 prostate): 13 µM; TGI (PC-3 prostate): 75.3 µM; GI50 (SNB-75 CNS): > 100 µM; TGI (SNB-75 CNS): > 100 µM; GI50 (A549 NSCLC): 42.2 µM; TGI (A549 NSCLC): > 100 µM; GI50 (HOP-92 NSCLC): 1.95 µM; TGI (HOP-92 NSCLC): 20.2 µM; GI50 (UACC-257 melanoma): 34.1 µM; TGI (UACC-257 melanoma): > 100 µM; GI50 (CAKI-1 renal): 30.9 µM; TGI (CAKI-1 renal): > 100 µM; GI50 (RXF 393 renal): 36.6 µM; TGI (RXF 393 renal): > 100 µM; GI50 (NCI-H522 lung): 26.6 µM; TGI (NCI-H522 lung): > 100 µM; GI50 (OVCAR-5 ovarian): 22.6 µM; TGI (OVCAR-5 ovarian): > 100 µM; GI50 (SF-295 CNS): 25.4 µM; TGI (SF-295 CNS): 86.2 µM; GI50 (DU-145 prostate): 0.291 µM; TGI (DU-145 prostate): 25.3 µM; GI50 (SN12C renal): 28.8 µM; TGI (SN12C renal): > 100 µM; GI50 (OVCAR-3 ovarian): 21.9 µM; TGI (OVCAR-3 ovarian): > 100 µM; GI50 (OVCAR-4 ovarian): 51.9 µM; TGI (OVCAR-4 ovarian): > 100 µM; GI50 (MOLT-4 leukemia): 13 µM; TGI (MOLT-4 leukemia): 53 µM; GI50 (SF-268 CNS): 34.6 µM; TGI (SF-268 CNS): > 100 µM; GI50 (HCT-15 colon): 37.2 µM; TGI (HCT-15 colon): > 100 µM; GI50 (UO-31 renal): 39.3 µM; TGI (UO-31 renal): > 100 µM; GI50 (U251 CNS): 20.2 µM; TGI (U251 CNS): > 100 µM; GI50 (NCI-H226 lung): 22.8 µM; TGI (NCI-H226 lung): > 100 µM; GI50 (MDA-MB-435): 19.8 µM; TGI (MDA-MB-435): 58.1 µM; GI50 (SNB-19 CNS): 25.2 µM; TGI (SNB-19 CNS): > 100 µM; GI50 (M14 melanoma): 24.7 µM; TGI (M14 melanoma): > 100 µM; GI50 (HT29 colon): 11.7 µM; TGI (HT29 colon): 39.8 µM; GI50 (IGROV1 ovarian): 49.6 µM; TGI (IGROV1 ovarian): > 100 µM; GI50 (LOX IMVI melanoma): 29.8 µM; TGI (LOX IMVI melanoma): > 100 µM; GI50 (NCI-H23 lung): 12.3 µM; TGI (NCI-H23 lung): 63.9 µM; GI50 (HS 578T breast): 29.8 µM; TGI (HS 578T breast): > 100 µM; GI50 (UACC-62 melanoma): 16.7 µM; TGI (UACC-62 melanoma): 47.1 µM; GI50 (NCI/ADR-RES ovarian): 26.2 µM; TGI (NCI/ADR-RES ovarian): > 100 µM; GI50 (MCF7 breast): 20 µM; TGI (MCF7 breast): 66.4 µM; GI50 (HOP-62 NSCLC): 41.1 µM; TGI (HOP-62 NSCLC): > 100 µM; GI50 (COLO 205 colon): 10.7 µM; TGI (COLO 205 colon): 39.3 µM; GI50 (786-0 renal): 39.5 µM; TGI (786-0 renal): > 100 µM; GI50 (SK-MEL-2 melanoma): > 100 µM; TGI (SK-MEL-2 melanoma): > 100 µM; GI50 (SK-MEL-28 melanoma): 35.6 µM; TGI (SK-MEL-28 melanoma): > 100 µM; GI50 (ACHN renal): 32.3 µM; TGI (ACHN renal): > 100 µM; GI50 (KM12 colon): 13.6 µM; TGI (KM12 colon): 44 µM; GI50 (NCI-H460 lung): 27.8 µM; TGI (NCI-H460 lung): 79.8 µM; GI50 (BT-549 breast): 1.44 µM; TGI (BT-549 breast): 18.1 µM; GI50 (SW-620 colon): 23.1 µM; TGI (SW-620 colon): > 100 µM; GI50 (SK-OV-3 ovarian): 47.2 µM; TGI (SK-OV-3 ovarian): 97.6 µM; GI50 (CCRF-CEM leukemia): 13.8 µM; TGI (CCRF-CEM leukemia): 87.9 µM; GI50 (K-562 leukemia): 5.13 µM; TGI (K-562 leukemia): 87.1 µM; GI50 (SF-539 CNS): 15.9 µM; TGI (SF-539 CNS): 46.8 µM; GI50 (SK-MEL-5 melanoma): 3.61 µM; TGI (SK-MEL-5 melanoma): 15 µM; GI50 (OVCAR-8 ovarian): 31.3 µM; TGI (OVCAR-8 ovarian): > 100 µM
